# Data as given in PMC12451337 (ESMO Open, 2025).
# “And” between values parts separate entries of the source, which are not always exact repeats. Equal values may be shown once.
# Experiments:
# [1] = tested on: patients with advanced solid tumors; test: Phase I dose-escalation trial: safety and tolerability (TEAEs, DLTs, MTD, RP2D)
# Protocol: The study was carried out in compliance with the International Council for Harmonisation Good Clinical Practices, including the ethical principles of the Declaration of Helsinki. All patients provided signed informed consent before any study-specific procedures were carried out.
# For determination of dose escalation, all toxicities, all available PK, and other relevant patient data occurring during the first cycle were considered. In addition, safety in patients ongoing in repeat cycles at lower doses was also taken into consideration by the Cohort Review Committee (CRC; consisting of investigators and the medical monitor), when making dose-escalation decisions. The determination of RP2D included the assessment of acute and chronic toxicities and tolerability (missing doses, dose reductions, etc.) and was informed by the experience of the totality of data. The maximum tolerated dose (MTD) was defined as the highest dose level at which one or fewer of six patients experienced dose-limiting toxicities (DLTs). […] A dose reduction at or after cycle 2 was granted in accordance with dose modification guidelines if, in the opinion of the investigator, a dose reduction was in the best interest of the patient.
# Safety was monitored throughout the study.
# [2] = tested on: polyamine transport in T cells; test: Whole blood assay: uptake of fluorescently labeled spermine analog by activated T cells (flow cytometry); format: cell-based, human
# Protocol: To evaluate the target engagement activity of AMXT 1501 after administration, an ex vivo pharmacodynamic assay assessing lymphocyte spermine uptake and inhibition of uptake by AMXT 1501 was developed.
# The purpose of the whole blood assay is to quantify the inhibition of polyamine transport in T cells in human subjects receiving AMXT 1501. Whole blood collected from subjects receiving AMXT 1501 was diluted with serum-free media and stimulated with anti-CD3 and anti-CD28 to drive T-cell activation and proliferation for a total of 3 days. During the last 12-18 h of culture, a fluorescently labeled spermine analog (compound 5)[38] was added to the in vitro culture to monitor polyamine uptake into cells. The functional activity (inhibitory effect) of AMXT 1501 on compound 5 uptake by T cells is then determined using flow cytometry by measuring the frequency and mean fluorescence intensity of compound 5+ T cells. Comparisons were made between the uptake in the pretreatment sample and samples taken over time postdose.
# An ex vivo blood-based pharmacodynamic assay was developed to measure the inhibition of uptake of a fluorescently labeled polyamine analog by AMXT 1501 into activated CD4+ lymphocytes in culture. Using a fluorescence-activating cell sorting system, tracking of the cellular uptake of the fluorescence of this labeled polyamine was followed after CD3/CD28 activation.
# [3] = tested on: tumor cells in culture; test: Predicted ED95 against tumor cells in culture (nonclinical data); format: cell-based
# [4] = tested on: polyamine transport; set-up: method as in PMID 19281226; conditions: without crossing the cell membrane; cited from earlier work
# [5] = clinical; conditions: human, oral
# Protocol: (§1) Blood was obtained from all patients and collected in anticoagulant tubes (K2-EDTA). Plasma samples were stored at −80°C until analysis (both drugs were validated as stable under these storage conditions). The PK analysis population included all patients who received at least one dose of AMXT 1501 and had at least one quantifiable AMXT 1501 plasma concentration postdose.
# [6] = Pharmacokinetics in patients (plasma and tumor biopsy, LC-MS/MS)
# Protocol: as §1
# [7] = whole human blood samples treated with 0-2000 nM AMXT 1501, absence of DFMO
smiles,measurement,setting,value
"CCCCCCCCCCCCCCCC(=O)NCCCC[C@@H](N)C(=O)NCCCNCCCCNCCCN [AMXT 1501, AMXT 1501 dicaprate]","AMXT 1501 dose relationship with proportions of patients with TEAEs, treatment-related TEAEs or SAEs, discontinuation, dose interruption","[1]; human, in vivo",no strong evidence for any AMXT 1501 dose relationship
same,RP2D of AMXT 1501 in the combination,[1]; in combination with DFMO 500 mg b.i.d.,600 mg b.i.d.
same,MTD,"[1]; part 1, when given with DFMO 250 mg b.i.d.",1800 mg o.d.
same,Part 1 AMXT 1501 recommended phase II dose (RP2D),"[1]; part 1, with DFMO 250 mg b.i.d.",1800 mg o.d.
same,Inhibition of fluorescent marker transport with DFMO added to the culture,[2]; DFMO added to the culture,still able to potently inhibit this transport
same,Target engagement in samples taken over time following dosing versus pretreatment,"[2]; ex vivo, patients' blood after oral dosing",sustained AMXT 1501 target engagement activity
same,Concentration of maximal fluorescent-labeled spermine uptake inhibition,[2]; [7],250 nM
same,half maximum inhibitory concentration (ED50),[2]; [7],~0.075 µM
same,predicted effective dose 95% (ED95),"[3]; in combination with DFMO, nonclinical data",0.1 µM
same,Blocks cellular uptake of spermidine,[4],nanomolar range
same,Kp,[5]; tumor biopsy / plasma,12
same,concentration at 30 days of treatment,[5]; tumor biopsy,3480 ng/mL and 6.12 µM
same,AMXT 1501 exposure based on mean Cmax versus dose,"[6]; human, in vivo",near dose-proportional
same,Accumulation of AMXT 1501 after repeat dosing,"[6]; human, in vivo",up to 10 fold
same,Effect of DFMO administration on AMXT 1501 exposure,"[6]; human, in vivo",no consistent effect
same,Predose AMXT 1501 plasma concentration,"[6]; human, in vivo",296 ng/mL
same,AMXT 1501 steady state obtained by,"[6]; human, in vivo, po",cycle 1 day 14
"NCCCC(N)(C(=O)O)C(F)F (centres unmarked) [DFMO, difluoromethylornithine, reference compound]",Effect of DFMO addition on uptake of the fluorescent marker,[2]; addition to the culture,increased the uptake of the fluorescent marker
same,predicted ED95 concentration,[3],100 μM and 18 200 ng/ml
same,DFMO exposure versus dose,[6]; between the 500 and 1000 mg/day dose levels,approximately dose-proportional
same,Change in DFMO exposure with repeat dosing,"[6]; human, in vivo",no substantial change
same,Effect of AMXT 1501 dose level on DFMO exposure,"[6]; human, in vivo",no apparent effect
same,Achievement of predicted DFMO ED95 concentration (100 μM) by oral delivery,[6]; in combination with AMXT 1501,unable to achieve this level
